From patent US11925612B2, “Bactericidal and virucidal pharmaceutical composition” (Quimica Luar SRL, priority 2015, dated 2024)
Read-outs that look alike come from different tables or passages of the source.

Experiments:
[1] = tested on: P. aeruginosa; assay: Bactericidal test: CFU count after incubation in PBS buffer; assay type: cell-based, Pseudomonas aeruginosa; details: for Colony count (UFC/mL ± 10): 4-hour contact at 37° C., Example 8; for Colony count (UFC/mL ± 10) / P. aeruginosa count (UFC/mL ± 10) As a function of treatment time: control 2,000,000; for Colony count (UFC/mL ± 10) Pseudomonas: Example 9; for P. aeruginosa count (UFC/mL ± 10) As a function of treatment time: 37° C., Example 6; for concentration at which the number of CFU/mL decreases to 1000: FIG. 11, Example 12
[2] = tested on: artificial biofilm of P. aeruginosa; assay: Antimicrobial effect on artificial biofilm (2% alginate solution); assay type: cell-based, Pseudomonas aeruginosa; details: Biofilm (2% alginate) + ionic strength (1 M NaCl), 4 hours at 37° C., control 2,000,000, Example 21
Description: Work consisted of incubating bacterial populations of a known load in terms of CFU/mL with the compounds mentioned in different molar concentrations. In vitro test batteries were organized at different doses or concentrations and in 1.5 mL Eppendorf tubes without the addition of culture medium. To this purpose, a PBS 100 mM phosphate buffer was used to maintain physiological conditions throughout the period of each test at 37° C. […] Each plate was added with 5 uL of a solution of 2,3,5-metabolic dye triphenyltetrazolium of chloride (TTC) 1% to enhance the contrast of colonies. Plates were incubated in inverted position, in a culture stove for 24-48 hours at 37° C. and subsequently the direct count was done, adjusted by dilution factors and seeding to report results in terms of CFU/mL. […] Treatments lasted 4 hours at 37° C.

[3] = tested on: Klebsiella pneumoniae; assay: Bactericidal test: CFU count after incubation in PBS buffer; assay type: cell-based; details: 4-hour contact at 37° C., control 1,000,000, Example 8
[4] = tested on: Escherichia coli; assay: as above; assay type: cell-based; details: 4-hour contact at 37° C., control 1,000,000, Example 8
[5] = tested on: Pseudomonas fluorescens; assay: as above; assay type: cell-based; details: 4-hour contact at 37° C., control 100,000, Example 8
[6] = tested on: Staphylococcus aureus (Gram+); assay: as above; assay type: cell-based; details: control 1,000,000; for Colony count (UFC/mL ± 10) Staphylococcus: 4 hours at 37° C., Example 9; for Colony count (UFC/mL ± 10) S. aureus: 4-hour at 37° C., Example 15; for Colony count (UFC/mL ± 10): 4-hour contact at 37° C., Example 8
[7] = tested on: Burkhordelia cepacia; assay type: cell-based; details: control 1,300,000; for Colony count (UFC/mL ± 10) Burkhordelia: 4 hours at 37° C., Example 9; for Colony count (UFC/mL ± 10): 4-hour contact at 37° C., Example 8
Description: In this case, tests were run on a non-nutritive liquid carrier (buffer solution) wherein the antimicrobial agent is mixed with quantified inocula of pure bacterial cultures. After different incubation times, the material is seeded on agar plates to perform quantification assays on the number of bacterias surviving the treatment.
When the time for each assay finished, aliquots of 100 uL and decimal dilutions of each tube which were seeded on petri dishes for the direct count of colony forming units (CFU) in Mueller Hinton agar (MHA), using pour-plating or spread-plating standard methods.
During testing, the medium was stored in thermostatic bath between 45-50° C. because the seeding technique requires imbibing and integrating bacteria in the medium.

CC(C)Cc1ccc(C(C)C(=O)O)cc1.[Na] (stereo not shown) [IBU-Na, SODIUM IBUPROFEN]
P. aeruginosa (UFC/mL ± 10) ([1]; IBU-Na 25 mM, Without ionic strength, 4 hours at 37° C., control 1,700,000, Example 12): 200,000 UFC/mL | P. aeruginosa (UFC/mL ± 10) ([1]; IBU-Na 30 mM, Population A (control 200,000), 4 h at 37° C., Example 5): 500 UFC/mL | P. aeruginosa (UFC/mL ± 10) ([1]; IBU-Na 30 mM, Population B (control 20,000), 4 h at 37° C., Example 5): 40 UFC/mL | P. aeruginosa (UFC/mL ± 10) ([1]; IBU-Na 40 mM, Population A (control 200,000), 4 h at 37° C., Example 5): 100 UFC/mL | Colony count (UFC/mL ± 10) P. aeruginosa ([1]; IBU-Na 50 mM + ClNa (1M), 4-hour at 37° C., control 3,000,000, Example 15): 10 UFC/mL | Colony count (UFC/mL ± 10) ([1]; IBU-Na 50 mM): 100 UFC/mL | Colony count (UFC/mL ± 10) Pseudomonas ([1]; IBU-Na 50 mM, 4 hours at 37° C., control 1,700,000): 100 UFC/mL | P. aeruginosa count (UFC/mL ± 10) As a function of treatment time ([1]; IBU-Na 50 mM, 4 hours): 30 UFC/mL | P. aeruginosa (UFC/mL ± 10) ([1]; IBU-Na 50 mM, Without ionic strength, 4 hours at 37° C., control 1,700,000, Example 12): 100 UFC/mL | P. aeruginosa (UFC/mL ± 10) ([1]; IBU-Na 50 mM, pH 7.8, 4 h at 37°, control 200,000, Example 7): 600 UFC/mL | Colony count (UFC/mL ± 10) ([1]; IBU-Na 100 mM): 10 UFC/mL | P. aeruginosa count (UFC/mL ± 10) As a function of treatment time ([1]; IBU-Na 100 mM, 1 hour): 2,000 UFC/mL | Colony count (UFC/mL ± 10) Pseudomonas ([1]; IBU-Na 100 mM, 4 hours at 37° C., control 1,700,000): 10 UFC/mL | concentration at which the number of CFU/mL decreases to 1000 ([1]; with ionic strength of NaCl 1 M, 4 hours at 37° C.): about 5 mM | concentration at which the number of CFU/mL decreases to 1000 ([1]; without ionic strength, 4 hours at 37° C.): 25 mM | P. aeruginosa (UFC/mL ± 10) ([2]; 10 mM): 25,000 UFC/mL | P. aeruginosa (UFC/mL ± 10) ([2]; 25 mM): 200 UFC/mL | Colony count (UFC/mL ± 10) ([3]; IBU-Na 50 mM): 600 UFC/mL | Colony count (UFC/mL ± 10) ([3]; IBU-Na 100 mM): 10 UFC/mL | Colony count (UFC/mL ± 10) ([4]; IBU-Na 50 mM): 500 UFC/mL | Colony count (UFC/mL ± 10) ([4]; IBU-Na 100 mM): 10 UFC/mL | Colony count (UFC/mL ± 10) ([5]; IBU-Na 50 mM): 150 UFC/mL | Colony count (UFC/mL ± 10) ([5]; IBU-Na 100 mM): 10 UFC/mL | Colony count (UFC/mL ± 10) Staphylococcus ([6]; IBU-Na 5 mM): 1,000,000 UFC/mL | Colony count (UFC/mL ± 10) Staphylococcus ([6]; IBU-Na 10 mM): 1,000,000 UFC/mL | Colony count (UFC/mL ± 10) S. aureus ([6]; IBU-Na 12.5 mM + ClNa (1M)): 100 UFC/mL | Colony count (UFC/mL ± 10) S. aureus ([6]; IBU-Na 25 mM + ClNa (1M)): 10 UFC/mL | Colony count (UFC/mL ± 10) Staphylococcus ([6]; IBU-Na 25 mM): 30,000 UFC/mL | Colony count (UFC/mL ± 10) S. aureus ([6]; IBU-Na 50 mM + ClNa (1M)): 10 UFC/mL | Colony count (UFC/mL ± 10) ([6]; IBU-Na 50 mM): 550 UFC/mL | Colony count (UFC/mL ± 10) Staphylococcus ([6]; IBU-Na 50 mM): 600 UFC/mL | Colony count (UFC/mL ± 10) ([6]; IBU-Na 100 mM): 10 UFC/mL | Colony count (UFC/mL ± 10) Staphylococcus ([6]; IBU-Na 100 mM): 10 UFC/mL | Colony count (UFC/mL ± 10) Burkhordelia ([7]; IBU-Na 5 mM): 1,300,000 UFC/mL | Colony count (UFC/mL ± 10) Burkhordelia ([7]; IBU-Na 10 mM): 1,300,000 UFC/mL | Colony count (UFC/mL ± 10) Burkhordelia ([7]; IBU-Na 25 mM): 40,000 UFC/mL | Colony count (UFC/mL ± 10) ([7]; IBU-Na 50 mM): 680 UFC/mL | Colony count (UFC/mL ± 10) Burkhordelia ([7]; IBU-Na 50 mM): 700 UFC/mL | Colony count (UFC/mL ± 10) ([7]; IBU-Na 100 mM): 10 UFC/mL | Colony count (UFC/mL ± 10) Burkhordelia ([7]; IBU-Na 100 mM): 10 UFC/mL
